Experiments:
[1] = system: A431 (wild-type EGFR overexpressing) cells; assay: Cell proliferation assay (MTS), A431; assay type: cell-based; details: Homo sapiens, A-431, 96 h exposure
Procedure: (§1) A431 (wild-type EGFR overexpressing) and H1975 (double-mutant overexpressing) cells were exposed to test compounds for 96 h and the cell proliferation was determined by the MTS method.

[2] = system: H1975 (double-mutant overexpressing) cells; assay: Cell proliferation assay (MTS), H1975; assay type: cell-based; details: Homo sapiens, NCI-H1975, 96 h exposure
Procedure: as §1

Compound	IC50 [1]	IC50 [2]
C=CC(=O)Nc1cc(-c2c(-c3ccccc3)oc3ncnc(NC4CCCC4)c23)ccc1N1CC[C@@H](N(C)C)C1 [Compound 28, N-{5-[4-(Cyclopentylamino)-6-phenylfuro[2,3-d]pyrimidin-5-yl]-2-[(3R)-3-(dimethylamino)pyrrolidin-1-yl]phenyl}prop-2-enamide]	> 5000 nM	200 to 5000 nM
C=CC(=O)Nc1cc(-c2c(-c3ccccc3)oc3ncnc(NCCc4ccc(O)cc4)c23)ccc1N1CCN(C)CC1 [Compound 36, N-[5-(4-{[2-(4-Hydroxyphenyl)ethyl]amino}-6-phenylfuro[2,3-d]pyrimidin-5-yl)-2-(4-methylpiperazin-1-yl)phenyl]prop-2-enamide]	200 to 5000 nM	200 to 5000 nM
C=CC(=O)Nc1cc(-c2c(-c3ccccc3)oc3ncnc(NCCc4ccc(O)cc4)c23)ccc1N(C)CCN(C)C [Compound 37, N-[2-{[2-(Dimethylamino)ethyl](methyl)amino}-5-(4-{[2-(4-hydroxyphenyl)ethyl]amino}-6-phenylfuro[2,3-d]pyrimidin-5-yl)phenyl]prop-2-enamide]	200 to 5000 nM	200 to 5000 nM
C=CC(=O)Nc1cc(-c2c(-c3ccccc3)oc3ncnc(NCCc4ccc(O)cc4)c23)ccc1N(C)CCN1CCN(C)CC1 [Compound 40, N-[5-(4-{[2-(4-Hydroxyphenyl)ethyl]amino}-6-phenylfuro[2,3-d]pyrimidin-5-yl)-2-{methyl [2-(4-methylpiperazin-1-yl)ethyl]amino}phenyl]prop-2-enamide]	> 5000 nM	200 to 5000 nM
C=CC(=O)Nc1cc(-c2c(-c3ccccc3)oc3ncnc(NCCc4ccc(S(N)(=O)=O)cc4)c23)ccc1N(C)CCN(C)C [Compound 41, N-(5-[4-({2-[4-(Aminosulfonyl)phenyl]ethyl}amino)-6-phenylfuro-[2,3-d]pyrimidin-5-yl]-2-{[2-(dimethylamino)ethyl](methyl)amino}phenyl)prop-2-enamide]	200 to 5000 nM	< 200 nM
C=CC(=O)Nc1cc(-c2c(-c3ccc(F)cc3)oc3ncnc(NC4CCCC4)c23)ccc1N(C)CCN(C)C [Compound 42, N-(5-[4-(Cyclopentylamino)-6-(4-fluorophenyl)furo[2,3-d]pyrimi-din-5-yl]-2-{[2-(dimethylamino)ethyl](methyl)amino}phenyl)prop-2-enamide]	200 to 5000 nM	< 200 nM
C=CC(=O)Nc1cc(-c2c(-c3ccccc3)oc3ncnc(Nc4ccccc4)c23)ccc1N(C)CCN(C)C [Compound 43, N-(2-{[2-(Dimethylamino)ethyl](methyl)amino}-5-[6-phenyl-4-(phenylamino)furo[2,3-d]pyrimidin-5-yl]phenyl)prop-2-enamide]	200 to 5000 nM	< 200 nM
C=CC(=O)Nc1cc(-c2c(-c3ccccc3)oc3ncnc(N[C@H]4CC[C@@H](O)CC4)c23)ccc1N(C)CCN(C)C [Compound 52, N-(2-{[2-(Dimethylamino)ethyl](methyl)amino}-5-{4-[(4-hydroxy-cyclohexyl)amino]-6-phenylfuro[2,3-d]pyrimidin-5-yl}phenyl)prop-2-enamide]	200 to 5000 nM	< 200 nM
C=CC(=O)Nc1cc(-c2c(-c3ccccc3)oc3ncnc(N[C@@H]4CCCC[C@@H]4O)c23)ccc1N(C)CCN(C)C [Compound 53, N-[2-{[2-(Dimethylamino)ethyl](methyl)amino}-5-(4-{[(1R,2S)-2-hydroxycyclohexyl]amino}-6-phenylfuro[2,3-d]pyrimidin-5-yl)phenyl]prop-2-enamide]	200 to 5000 nM	< 200 nM
C=CC(=O)Nc1cc(-c2c(-c3ccccc3)oc3ncnc(N[C@H]4CC[C@H](O)CC4)c23)ccc1N(C)CCN(C)C [Compound 55, N-(2-{[2-(Dimethylamino)ethyl](methyl)amino}-5-{4-[(4-hydroxy-cyclohexyl)amino]-6-phenylfuro[2,3-d]pyrimidin-5-yl}phenyl)prop-2-enamide]	200 to 5000 nM	< 200 nM
C=CC(=O)Nc1cccc(-c2c(-c3ccccc3)oc3ncnc(N4CCC4)c23)c1 [Compound 61, N-{3-[4-(Azetidin-1-yl)-6-phenylfuro[2,3-d]pyrimidin-5-yl]phenyl}prop-2-enamide]	200 to 5000 nM	< 200 nM

From US20250243215A1, “INHIBITORS OF EPIDERMAL GROWTH FACTOR RECEPTOR” (National Health Research Institutes, priority 2024, published 2025)
